Data reported in patent US6977252B1, “Use of 1,4-benzothiazepine derivatives as drugs for overcoming resistance to anticancer drugs” (Noboru Kaneko, priority 1999, dated 2005).
Where two headings read alike, the source gives them in different places. Each block holds one compound with its values, some of them ahead of it.

Key:
[1] = tested on: GB-1 human glioblastoma cell and U87-GM cell; details: GB-1 cell and U87-GM cell; cited from earlier work
[2] = tested on: PC-14 human non-small cell lung cancer cell line; assay: MTT cell growth inhibition by anticancer drug with or without compound 1, PC-14; type: cell-based; details: read-out: 50% cell growth inhibiting concentration (IC50) of anticancer drug
Method: (§1) PC-14 as a human non-small cell lung cancer cell line and PC-14/CDDP as a cisplatin tolerant cell line thereof were used to examine an effect of overcoming each resistance to cisplatin, carboplatin, nedaplatin and taxol. PC-14 and PC-14/CDDP were made into a single cell in BPMI 1640 medium by trypsinization or by using a cell scraper, and prepared a cell suspension of 100 cells per 15 μl. The compound 1 dissolved in dimethyl sulfoxide was added therein to make final concentration of 10 μm, and then the resulting liquid was poured into a 96-perforated plate at 150 μl per well. An anticancer drug was dissolved in sterilized distilled water. The resulting liquid of 150 μl per well was poured into the first row to transfer in turn from the second row to the next rows by 150 μl for each raw so as to form two-fold dilution rows. A group without the cells was prepared as a negative control, and a group without the anticancer drug and the compound I was prepared as a positive control. After culturing at 37° C. under carbon dioxide having a concentration of 5% and saturated vapor for 96 hours, an MTT [3-(4,5-dimethylthiazol-2-yl)-2,5-diphenyltetrazolium bromide] reagent of 20 μl dissolved in D-PBS (−) at a concentration of 5 mg/ml was added to each of the groups, and the resulting liquid was cultured for another 4 hours at 37° C. After the completion of the culture, the entire plate was centrifuged, and the supernatant was removed. Dimethyl sulfoxide of 200 μl was added to dissolve formazan crystal generated by enzyme activities of mitochondria in the cells. Then, absorbed light of 562–630 nm was determined by using a multiplate reader. Given that the average growth rate of the negative control is 0% and the average growth rate of the positive control is 100%, a dose-growth curve was plotted to calculate […] cell growth inhibiting concentration (IC50).

[3] = tested on: PC-14/CDDP cisplatin tolerant cell line; assay: MTT cell growth inhibition by anticancer drug with or without compound 1, PC-14/CDDP; type: cell-based, human; details: for IC50: PC-14/CDDP, MTT, read-out: 50% cell growth inhibiting concentration (IC50) of anticancer drug
Method: as §1

PC-14 tumor = assay: Tumor growth in nude mice implanted with PC-14; type: in vivo, nude mice BALB/c nu/nu; details: for Tumor growth rate GR: 11th
Method: (§2) Female nude mice BALB/c nu/nu (6-week-old) were implanted subcutaneously in each back with 2×10^7 of PC-14/CDDP and the parental cell line PC-14 suspended in physiological saline, then the progress of tumor were observed. On the 7th day from the implantation, tumor condition was checked to select and randomize testable individuals not to cause any deviation, and the selected mice were then divided into a control group and a test group. After each tumor volume was determined based on the formula: (tumor short diameter)^2×(tumor long diameter), administration of drug was started on the seventh day.
(§3) The compound 1 was used as a test compound, 1.2 mg of which was dissolved in 0.05 ml of dimethyl sulfoxide, and then combined with 0.95 ml of 5% sorbitol-0.2% citric acid 1 hydrate solution (pH3.3) to make uniform solution.
(§4) Cisplatin was used as an anticancer drug, and was dissolved in distilled water to prepare 1.6 mg/ml solution.
(§5) The administration process is carried out by simultaneous intravenous injections of 0.05 ml of the test compound and 0.05 ml of the anticancer-drug solution once a day on the 7th, 11th, 15th day after the tumor implantation. For the control group, 0.1 ml of physiological saline was administered by intravenous injection, and for the group to be administered only the anticancer drug, 0.05 ml of the anticancer-drug solution and 0.05 ml of physiological saline were administered by intravenous injection. One dose of the test compound was 3 mg/kg, and one dose of the anticancer drug was 4 mg/kg. During the administration of the drug, physical status of the whole body of the mice was observed, and the weight and the long/short lengths of tumor were measured. Tumor growth rate (GR) and effect of inhibiting cancer (lowest T/C) were calculated based on the following formulas, respectively. [formula] [formula]

PC-14/CDDP tumor = assay: Tumor growth in nude mice implanted with PC-14/CDDP; type: in vivo, nude mice BALB/c nu/nu; details: for lowest T/C / Tumor growth rate GR: PC-14/CDDP; for Tumor growth rate GR: 11th
Method: as §2, §3, §4, §5

[4] = tested on: KCP-4 cell isolated from human nasopharyngeal cancer KB cells; details: KCP-4 cisplatin-resistance cell; cited from earlier work
[5] = tested on: B16a cell and B16a-Pt cell line; details: B16a cell and cisplatin-resistant B16a-Pt cell line; cited from earlier work
[6] = tested on: K562 human promyelocytic leukemia cell line; assay: MTT cell growth inhibition by adriamycin with or without compound 1, K562; type: cell-based
Method: PC-14 as a human non-small cell lung cancer cell line and PC-14/CDDP as a cisplatin tolerant cell line thereof were used to examine an effect of overcoming each resistance to cisplatin, carboplatin, nedaplatin and taxol. PC-14 and PC-14/CDDP were made into a single cell in BPMI 1640 medium by trypsinization or by using a cell scraper, and prepared a cell suspension of 100 cells per 15 μl. The compound 1 dissolved in dimethyl sulfoxide was added therein to make final concentration of 10 μm, and then the resulting liquid was poured into a 96-perforated plate at 150 μl per well. An anticancer drug was dissolved in sterilized distilled water. The resulting liquid of 150 μl per well was poured into the first row to transfer in turn from the second row to the next rows by 150 μl for each raw so as to form two-fold dilution rows. A group without the cells was prepared as a negative control, and a group without the anticancer drug and the compound I was prepared as a positive control. […] Then, absorbed light of 562–630 nm was determined by using a multiplate reader. […]

[7] = tested on: K562/ADM adriamycin resistant cell line; assay: MTT cell growth inhibition by adriamycin with or without compound 1, K562/ADM; type: cell-based, human; details: for IC50: Homo sapiens, K562, K562/ADM, read-out: 50% cell growth inhibiting concentration (IC50) of adriamycin
Method: as §1
K562 as a human […] cell line and K562/ADM as an adriamycin resistant cell line thereof were used to examine the effect of overcoming the resistance to adriamycin. […]

[8] = PC-14, with compound 1 (final concentration 10 μm), 96 hours
[9] = PC-14, without compound 1, 96 hours
[10] = with compound 1 (final concentration 10 μm), 96 hours

SMILES: COC(=O)C1=C(C#N)NC(C)=C(C(=O)OC(C)C)C1c1cccc([N+](=O)[O-])c1 (centres unmarked) [nilvadipine]
- drugs that enhance any significant antitumor effect of cisplatin [1]: none

SMILES: N.N.O=C([O-])C1(C(=O)[O-])CCC1.[Pt+2] [carboplatin]
- IC50 [2, 8]: 29.5 ± 11.3 µM
- IC50 [2, 9]: 37.1 ± 10.8 µM
- IC50 [3, 10]: 26.1 ± 7.78 µM
- IC50 ([3]; without compound 1, 96 hours): 143 ± 39.1 µM

SMILES: N.N.[Cl][Pt][Cl] [cisplatin]
- IC50 [2, 8]: 1.77 ± 0.89 µM
- IC50 [2, 9]: 2.4 ± 1.05 µM
- IC50 [3, 10]: 2.16 ± 1.12 µM
- IC50 ([3]; without compound 1, 96 hours): 18.6 ± 2.83 µM
- lowest T/C (PC-14 tumor; 11th day, PC-14, cisplatin 4 mg/kg i.v. with compound 1 3 mg/kg i.v.): 9.76%
- lowest T/C (PC-14 tumor; 11th day, PC-14, cisplatin 4 mg/kg i.v., without compound 1): 13.33%
- lowest T/C (PC-14 tumor; 15th day, PC-14, cisplatin 4 mg/kg i.v. with compound 1 3 mg/kg i.v.): 6.75%
- lowest T/C (PC-14 tumor; 15th day, PC-14, cisplatin 4 mg/kg i.v., without compound 1): 10.52%
- Tumor growth rate GR (PC-14 tumor; PC-14, cisplatin 4 mg/kg i.v. on 7th, 15th day, without compound 1): 874.30%
- Tumor growth rate GR (PC-14 tumor; PC-14, cisplatin 4 mg/kg i.v. with compound 1 3 mg/kg i.v. on 7th, 15th day): 753.32%
- lowest T/C (PC-14/CDDP tumor; 11th day, cisplatin 4 mg/kg i.v. with compound 1 3 mg/kg i.v.): 9.81%
- lowest T/C (PC-14/CDDP tumor; 11th day, cisplatin 4 mg/kg i.v., without compound 1): 20.64%
- lowest T/C (PC-14/CDDP tumor; 15th day, cisplatin 4 mg/kg i.v. with compound 1 3 mg/kg i.v.): 2.36%
- lowest T/C (PC-14/CDDP tumor; 15th day, cisplatin 4 mg/kg i.v., without compound 1): 8.47%
- Tumor growth rate GR (PC-14/CDDP tumor; cisplatin 4 mg/kg i.v. on 7th, 15th day, without compound 1): 478.43%
- Tumor growth rate GR (PC-14/CDDP tumor; cisplatin 4 mg/kg i.v. with compound 1 3 mg/kg i.v. on 7th, 15th day): 190.52%
- resistance of KCP-4 cell to cisplatin [4]: about 63 fold

SMILES: COc1ccc(CCN(C)CCCC(C#N)(c2ccc(OC)c(OC)c2)C(C)C)cc1OC (centres unmarked) [verapamil]
- enhancement of antitumor effect of cisplatin [5]: do not exhibit any significant enhanced antitumor effect
- drugs that enhance any significant antitumor effect of cisplatin [1]: none

- IC50 ([6]; K562, K562, with compound 1, n = 1, read-out: 50% cell growth inhibiting concentration (IC50) of adriamycin): 0.004 µM
- IC50 ([6]; K562, K562, without compound 1, n = 1, read-out: 50% cell growth inhibiting concentration (IC50) of adriamycin): 0.008 µM
- IC50 ([7]; with compound 1, n = 1): 0.166 µM
- IC50 ([7]; without compound 1, n = 1): 1.15 µM
SMILES: COc1cccc2c1C(=O)c1c(O)c3c(c(O)c1C2=O)C[C@@](O)(C(=O)CO)C[C@@H]3O[C@H]1C[C@H](N)[C@H](O)[C@H](C)O1 [adriamycin]

SMILES: COc1ccc2c(c1)CN(C(=O)CCN1CCC(Cc3ccccc3)CC1)CCS2 [compound 1, 4-[3-(4-benzylpiperidine-1-yl)propionyl]-7-methoxy-2,3,4,5-tetrahydro-1,4-benzothiazepine]
- effect on resistance and sensitivity to anticancer drugs ([3]; cisplatin resistant lung cancer cell line PC-14/CDDP, compound 1 at 10 μm): shows the effect of reducing the resistance to and increasing the sensitivity to cisplatin, carboplatin, nedaplatin and taxol
- effect on resistance and sensitivity to adriamycin ([7]; adriamycin resistant cell line K562/ADM): shows the effect of reducing the resistance to and increasing the sensitivity to adriamycin
- effect of inhibiting tumor growth together with cisplatin (PC-14/CDDP tumor; nude mice with PC-14/CDDP, compound 1 3 mg/kg with cisplatin 4 mg/kg i.v.): the effect of inhibiting tumor growth in the cisplatin resistant cancer cell line (PC-14/CDDP) was exhibited

SMILES: COc1ccc([C@@H]2Sc3ccccc3N(CCN(C)C)C(=O)[C@@H]2OC(C)=O)cc1 [diltiazem]
- enhancement of antitumor effect of cisplatin [5]: do not exhibit any significant enhanced antitumor effect
- drugs that enhance any significant antitumor effect of cisplatin [1]: none

SMILES: CN1CCN(CCCN2c3ccccc3Sc3ccc(C(F)(F)F)cc32)CC1 [trifluoperazine]
- enhancement of antitumor effect of cisplatin [5]: do not exhibit any significant enhanced antitumor effect

SMILES: Clc1ccc(C(c2ccc(Cl)cc2)[n+]2ccn(CC(OCc3ccc(Cl)cc3Cl)c3ccc(Cl)cc3Cl)c2)cc1.[Cl-] (centres unmarked) [calmidazilium]
- enhancement of antitumor effect of cisplatin [5]: do not exhibit any significant enhanced antitumor effect

SMILES: COC(=O)C1=C(C)NC(C)=C(C(=O)OC2CCCN(Cc3ccccc3)C2)C1c1cccc([N+](=O)[O-])c1 (centres unmarked) [benidipine]
- drugs that enhance any significant antitumor effect of cisplatin [1]: none

SMILES: [NH2][Pt]1([NH2])[O]CC(=O)[O]1 [nedaplatin]
- IC50 [2, 8]: 4.36 ± 1.53 µM
- IC50 [2, 9]: 7.1 ± 1.53 µM
- IC50 [3, 10]: 4.16 ± 1.28 µM
- IC50 ([3]; without compound 1, 96 hours): 25.9 ± 8.12 µM

- IC50 ([2]; Homo sapiens, PC-14, 96 h, PC-14, with compound 1 (final concentration 10 μm), 96 hours): 0.000663 µM
- IC50 ([2]; Homo sapiens, PC-14, 96 h, PC-14, without compound 1, 96 hours): 0.00113 µM
SMILES: CC(=O)O[C@H]1C(=O)[C@@]2(C)[C@H]([C@H](OC(=O)c3ccccc3)[C@]3(O)C[C@H](OC(=O)[C@H](O)[C@@H](NC(=O)c4ccccc4)c4ccccc4)C(C)=C1C3(C)C)[C@]1(OC(C)=O)CO[C@@H]1C[C@@H]2O [taxol]
- IC50 ([3]; Homo sapiens, PC-14, 96 h, with compound 1 (final concentration 10 μm), 96 hours): 1.73 µM
- IC50 ([3]; Homo sapiens, PC-14, 96 h, without compound 1, 96 hours): 5.29 µM
